One data set concerns the target human ACE2 (Homo sapiens, UniProt Q9BYF1). The note with it: cited from earlier work.
Data set [1] deals with SARS-CoV-2 as well as other human and bat coronaviruses. The note with it: mice; cited from earlier work.
Data set [2] has the same test system. The note with it: human airway epithelial cells; cited from earlier work.
Another data set has as its system LPS-induced ALI. The note with it: mice; cited from earlier work.
In the next data set the test system is MUC1. The note with it: mouse model of ALI; cited from earlier work.
A short description of data set [3]: water solubility in aqueous buffer under physiological conditions.
The subject of another data set is IL-6. The note with it: RA patients, within the first week of treatment; cited from earlier work.
For data set [4] the following is noted: human, in vivo; cited from earlier work.
Data set [5] concerns COVID-19. Put plainly: Phase 3 placebo-controlled study in hospitalized COVID-19 patients. The format is in vivo.
Data set [6] relates to chronic immune thrombocytopenia (ITP). The note with it: ITP patients, two randomized studies; cited from earlier work.
A short description of the next data set: physchem. The note with it: aqueous buffer.
For data set [7] the following is noted: in vivo.
The subject of a further data set is human neutrophils. The note with it: in vitro; cited from earlier work.
Data set [8] relates to COVID-19. The note with it: critically ill COVID-19 patients, compared to standard care; cited from earlier work.

We go through 5 molecules from patent US12263180B2, “Method for treatment of COVID-19-associated conditions” (priority 2020, dated 2025).

Values after ≈ are worked out from the molar mass of the structure shown. Like-named read-outs stand apart in the source and are kept apart here. A value given as a limit tells only on which side of the number the result lay.

human ACE2, sequence (Q9BYF1 18-805): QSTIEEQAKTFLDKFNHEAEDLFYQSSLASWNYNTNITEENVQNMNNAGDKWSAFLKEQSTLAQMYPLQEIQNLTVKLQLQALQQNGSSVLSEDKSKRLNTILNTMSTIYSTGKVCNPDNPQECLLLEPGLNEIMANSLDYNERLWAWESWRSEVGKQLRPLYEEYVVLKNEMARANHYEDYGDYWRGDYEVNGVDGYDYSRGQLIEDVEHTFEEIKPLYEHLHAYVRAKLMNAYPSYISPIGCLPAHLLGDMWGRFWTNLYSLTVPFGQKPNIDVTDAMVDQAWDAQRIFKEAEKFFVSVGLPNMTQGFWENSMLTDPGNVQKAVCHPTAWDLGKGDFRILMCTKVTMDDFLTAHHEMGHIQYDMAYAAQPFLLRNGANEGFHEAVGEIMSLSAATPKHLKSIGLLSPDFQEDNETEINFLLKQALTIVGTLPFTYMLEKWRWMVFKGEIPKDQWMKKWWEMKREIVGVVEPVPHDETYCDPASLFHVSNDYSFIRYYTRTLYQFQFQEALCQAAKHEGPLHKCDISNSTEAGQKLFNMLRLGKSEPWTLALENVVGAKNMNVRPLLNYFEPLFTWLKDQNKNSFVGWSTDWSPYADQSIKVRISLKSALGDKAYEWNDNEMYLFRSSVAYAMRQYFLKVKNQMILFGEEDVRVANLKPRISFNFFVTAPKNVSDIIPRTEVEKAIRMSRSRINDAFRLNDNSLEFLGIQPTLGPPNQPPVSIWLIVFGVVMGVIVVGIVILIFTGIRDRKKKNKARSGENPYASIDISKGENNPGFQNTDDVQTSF

As usually defined, the IC50 is the point on the concentration scale where inhibition reaches its midpoint. In the case of `N[C@@H](CCN[C@@H](CCN1CC[C@H]1C(=O)O)C(=O)O)C(=O)O` [nicotianamine], the IC50 at human ACE2 was 84 nM.
Regarding `O=c1nc(NO)ccn1[C@@H]1O[C@H](CO)[C@@H](O)[C@H]1O` [N4-hydroxycytidine], the inhibition of coronaviruses result in [1] was “inhibit SARS-CoV-2 as well as other human and bat coronaviruses”; in [2] it was “inhibit SARS-CoV-2 as well as other human and bat coronaviruses”.
One may read the solubility as the dissolved amount per volume that the medium holds. A lower solubility goes with little dissolved substance. As to `COc1cc(Nc2ncc(F)c(Nc3ccc4c(n3)NC(=O)C(C)(C)O4)n2)cc(OC)c1OC` [Compound 1, N4-(2,2-Dimethyl-3-oxo-4H-5-pyrid[1,4]oxazin-6-yl)-5-fluoro-N2-(3,4,5-trimethoxyphenyl)-2,4-pyrimidinediamine], in the data set with LPS-induced ALI, the “protection in LPS-induced ALI” value is “protective”. In addition, the MUC1 entry in the data set with MUC1 was “reduced MUC1”. This molecule also showed a solubility in data set [3] of 1 to 2 µg/mL (≈ 2.13 to 4.25 µM).
As for `COc1cc(Nc2ncc(F)c(Nc3ccc4c(n3)N(COP(=O)(O)O)C(=O)C(C)(C)O4)n2)cc(OC)c1OC` [Compound 4], the “plasma levels of IL-6” value with IL-6 was “reduce plasma levels of IL-6”. In addition, the safety profile result in [4] is given as “manageable safety profile”. Further, in the data set on COVID-19 [5] (vs placebo), the “occurrence of several severe symptoms of COVID-19 (AKI, kidney malfunction, acute lung injury, thrombosis, coagulopathy)” value is given as “significantly reduced” and the “percentage of COVID-19 infected patients that develop severe disease that requires intensive care” value was “significantly reduce”. The “percentage of patients developing severe or critical disease” value in the data set with COVID-19 [5] (within 29 days of first dose, vs placebo) was “significantly smaller percentage”. The “percentage of patients that develop ARDS” value in the data set with COVID-19 [5] (within patients requiring intensive care) is “significantly reduce”. In addition, in the data set with COVID-19 [5] (within patients that develop ARDS), the “number of patients that die” value was “significantly reduce”. For the same molecule, in data set [6], the bleeding episodes result is “decreased bleeding episodes” and the platelet counts result is listed as “increased platelet counts”. Moreover, the solubility in the data set “physchem” is more than 5000 µg/mL. Further, in [7], the “oral bioavailability when formulated with progroup -CH2-O-P(O)(OH)2” value is listed as “increased dramatically”. For the same molecule, the NETosis entry in the data set on human neutrophils is listed as “block NETosis”.
With `C[C@]12CCC(=O)C=C1CC[C@@H]1[C@@H]2[C@@H](O)C[C@@]2(C)[C@H]1CC[C@]2(O)C(=O)CO` [hydrocortisone, Hydrocortisone], in the data set with COVID-19 [8], the mortality rate entry is listed as “effective in reducing mortality rate”.
